# From patent US5336485A, “Method for protecting animals against tacrine induced cytotoxic injury using sterol compounds” (priority 1993, dated 1994)
# Structures can show the parent of a compound that is named as a salt.
# What was measured:
# male Sprague-Dawley rats = test: CCl4 induced lethality in rats; type: in vivo, rat; conditions: for Survival after CCl4 treatment: 100 mg/kg ip 24 h prior, […] CCl4 oral
# liver [1] = test: CCl4 induced hepatotoxicity in rats (serum AST/ALT); type: in vivo, rat
# In short: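 Male Sprague-Dawley rats received test compounds i.p. at 100 mg/kg 20–24 h before oral CCl4 (2.9 g/kg or 1 g/kg). Serum AST and ALT were measured 48 h after CCl4 challenge.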
# [2] = tested on: L1210 murine leukemia cells; test: Inhibition of L1210 leukemia cell growth in vitro; type: cell-based, mouse
# Procedure: Similar in vitro experiments were conducted with cholesteryl succinate tris salt and alpha-TS tris salt.
# liver [3] = test: Acetaminophen-induced hepatotoxicity in rats (AST/ALT); type: in vivo, rat
# Procedure: In vivo experiments were performed to determine if alpha-TS administration protects the liver from the hepatotoxic effects of acetaminophen. Acetaminophen is a commonly used analgesic that is metabolized to a reactive intermediate. […] The other group of male Sprague-Dawley rats received only the acetaminophen challenge. Forty eight hours after the challenge the rats were sacrificed and the levels of aspartate aminotransferase (AST) and alanine aminotransferase (ALT) were measured.
# FIGS. 10 and 11 show the results of in vivo experiments where male Sprague-Dawley rats were given an oral dose of 15 or 30 mg THA/kg body weight, respectively. In the experiments, one group of rats was provided with an i.p. dose of 100 mg cholesteryl succinate tris salt/kg body weight 20 hours prior to the THA challenge, another group of rats only received the THA challenge, and the last group of rats acted as a control and were not challenged. The serum AST levels were determined with respect to time after the THA challenge.
# skin lesion = test: Topical treatment of dermal injury in a human; type: in vivo
# Procedure: In one case, the middle knuckle of the left hand of a person was injured by the removal of a small wart with liquid nitrogen. Two months following the liquid nitrogen insult, the injured area (approximately 1 cm in diameter) was characterized by scar tissue raised several millimeters above the surrounding normal skin. At this time, the lesion was treated by wetting the injured area with alpha-TS dissolved in dimethyl sulfoxide (100mg/ml), daily for a period of two weeks. […] One year following the last alpha-TS treatment, the once injured area remains indistinguishable from the surrounding normal tissue. In another case, a person's lip was severely sunburned. Topical lip cremes and antibiotic cremes were used for several weeks following the ultraviolet insult with minimal therapeutic benefit. At this time, the lesion was treated by wetting the injured area with alpha-TS dissolved in dimethyl sulfoxide (100mg/ml) daily for a period of 1 week. […] In another case, the arch of the left foot of a person was inflamed and blistered from contact dermatitis or stress dermatitis. Six months after unsuccessful treatment on this lesion with betamethasone, the injured area was treated by wetting the injured area with alpha-TS dissolved in dimethyl sulfoxide (100 mg/ml) twice daily for a period of 1 week. […] It is also evident from these cases that alpha-TS is the active component that promotes wound healing and prevents scar formation.
# [4] = 50 mg/kg ip, 48 h after 1 g/kg CCl4 (Table 28)
# [5] = 100 mg/kg ip 20 h prior, 48 h after 1 g/kg CCl4 (Table 20)
# [6] = 100 mg/kg ip (dihydrocholesterol 80 + sodium sulfate 30 mg/kg), 48 h after 1 g/kg CCl4 (Table 35)
# [7] = 100 mg/kg ip, 30 min after CCl4 1 g/kg (Table 29)
# [8] = 100 mg/kg ip, 30 min prior to CCl4 1 g/kg (Table 29)
# [9] = 100 mg/kg ip, 20 hours prior to CCl4 1 g/kg (Table 29)
# [10] = 100 mg/kg ip, 48 h after 1 g/kg CCl4 (Table 28)
# [11] = 100 mg/kg ip, 48 h after 1 g/kg CCl4 (Table 31)
# [12] = 100 mg/kg ip, 48 h after 1 g/kg CCl4 (Table 37)
# [13] = 100 mg/kg ip, 48 h after 1 g/kg CCl4 (Table 40)
# [14] = 100 mg/kg ip, PEG 400 vehicle, 48 h after 1 g/kg CCl4 (Table 34)
# [15] = 100 mg/kg ip, immediately prior to CCl4 1 g/kg (Table 29)
# [16] = 100 mg/kg oral 20 h prior, 48 h after 1 g/kg CCl4 (Table 20)
# [17] = 200 mg/kg ip, 48 h after 1 g/kg CCl4 (Table 28)
# [18] = PEG 400 vehicle, ip 20 h prior, 24 hrs after 2 g/kg CCl4 (Table 32)
# [19] = PEG 400 vehicle, ip 20 h prior, 48 hrs after 2 g/kg CCl4 (Table 32)
# [20] = PEG 400 vehicle, ip 20 h prior, 72 hrs after 2 g/kg CCl4 (Table 32)
# [21] = 100 mg/kg ip 20 hrs prior, 48 h after 2 g/kg AP (Table 23)
# [22] = 100 mg/kg ip 20 h prior, 48 h after 1 g/kg CCl4 (Table 27), listed as Alpha Tocopheryl Succinate free acid
# [23] = rat plasma, 100 mg/kg ip 24 h prior, 48 h after […] CCl4
# [24] = 100 mg/kg ip 24 h prior, acetaminophen 2.5 g/kg
smiles,measurement,setting,value
CC(C)CCC[C@@H](C)[C@H]1CC[C@H]2[C@@H]3CC=C4C[C@@H](OC(=O)CCC(=O)O)CC[C@]4(C)[C@H]3CC[C@]12C [Cholesteryl Succinate tris salt],Survival after CCl4 treatment,male Sprague-Dawley rats,Yes
same,ALT,liver [1]; [4],0.16 ± 0.11 10^3 units/L
same,AST,liver [1]; [4],0.56 ± 0.35 10^3 units/L
same,Serum AST Levels,"liver [1]; 100 mg/kg ip 20 h prior, 24 hrs after 2 g/kg CCl4 (Table 26), tris salt",0.57 ± 0.38 10^3 units/L
same,ALT,liver [1]; [5],0.122 ± 0.034 10^3 units/L
same,AST,liver [1]; [5],0.41 ± 0.08 10^3 units/L
same,Serum AST Levels,"liver [1]; 100 mg/kg ip 20 h prior, 48 hrs after 2 g/kg CCl4 (Table 26), tris salt",0.19 ± 0.07 10^3 units/L
same,ALT,liver [1]; [6],0.04 ± 0.02 10^3 units/L
same,AST,liver [1]; [6],0.22 ± 0.06 10^3 units/L
same,ALT,liver [1]; [7],1.50 ± 0.79 10^3 units/L
same,AST,liver [1]; [7],7.87 ± 4.09 10^3 units/L
same,ALT,liver [1]; [8],2.12 ± 1.43 10^3 units/L
same,AST,liver [1]; [8],9.09 ± 4.38 10^3 units/L
same,ALT,liver [1]; [9],0.04 ± 0.01 10^3 units/L
same,AST,liver [1]; [9],0.12 ± 0.02 10^3 units/L
same,ALT,liver [1]; [10],0.04 ± 0.02 10^3 units/L
same,AST,liver [1]; [10],0.22 ± 0.06 10^3 units/L
same,ALT,liver [1]; [11],0.02 ± 0 10^3 units/L
same,AST,liver [1]; [11],0.10 ± 0.03 10^3 units/L
same,ALT,liver [1]; [12],0.09 ± 0.01 10^3 units/L
same,AST,liver [1]; [12],0.21 ± 0.03 10^3 units/L
same,ALT,liver [1]; [13],0.04 ± 0.01 10^3 units/L
same,AST,liver [1]; [13],0.12 ± 0.02 10^3 units/L
same,ALT,liver [1]; [14],0.07 ± 0.03 10^3 units/L
same,AST,liver [1]; [14],0.29 ± 0.22 10^3 units/L
same,ALT,liver [1]; [15],1.12 ± 1.38 10^3 units/L
same,AST,liver [1]; [15],6.69 ± 1.87 10^3 units/L
same,SGOT Levels,"liver [1]; 100 mg/kg ip, 48 h after 1.0 g/kg CCl4",0.10 ± 0.03 10^3 units/L
same,ALT,liver [1]; [16],4.09 ± 1.191 10^3 units/L
same,AST,liver [1]; [16],12.51 ± 41.31 10^3 units/L
same,ALT,liver [1]; [17],0.03 ± 0.01 10^3 units/L
same,AST,liver [1]; [17],0.16 ± 0.08 10^3 units/L
same,Serum AST Levels,liver [1]; [18],.19 ± .10 10^3 units/L
same,Serum AST Levels,liver [1]; [19],.10 ± .02 10^3 units/L
same,Serum AST Levels,liver [1]; [20],.10 ± .02 10^3 units/L
same,inhibition in vivo at 100 mg/kg,"liver [1]; Rattus norvegicus, ip, 48 h, read-out: % Hepatoprotection",100%
same,protection against CCl4 hepatotoxicity (in words),"liver [1]; rats, serum enzyme levels",complete protection
same,growth rate of L1210 cells (FIG. 7),[2],significantly suppress the growth rate of L1210 cells
same,Serum ALT Level,liver [3]; [21],158 ± 77 Units/L
same,Serum AST Level,liver [3]; [21],785 ± 495 Units/L
"Cc1c(C)c2c(c(C)c1OC(=O)CCC(=O)O)CC[C@@](C)(CCC[C@H](C)CCC[C@H](C)CCCC(C)C)O2 [alpha-TS, d-alpha-tocopheryl succinate]",Survival after CCl4 treatment,male Sprague-Dawley rats,Yes
same,Protection from CCl4,male Sprague-Dawley rats; 100 mg/kg ip (Table 5),Yes
same,Days Survived after CCl4,"male Sprague-Dawley rats; 100 mg/kg ip, 1 hour after CCl4 and daily thereafter",2 days
same,Days Survived after CCl4,"male Sprague-Dawley rats; 100 mg/kg ip, 1 hour prior and daily thereafter",> 7 days
same,Days Survived After CCl4 Treatment,"male Sprague-Dawley rats; 100 mg/kg ip, 24 h prior, CCl4 3.8 g/kg",> 7 days
same,Days Survived After CCl4 Treatment,"male Sprague-Dawley rats; 100 mg/kg ip, 24 h prior, CCl4 5.0 g/kg",2 days
same,Days Survived After CCl4 Treatment,"male Sprague-Dawley rats; 100 mg/kg ip, 24 h prior, CCl4 […]",> 7 days
same,Days Survived after CCl4,"male Sprague-Dawley rats; 100 mg/kg ip, single dose 24 h prior to CCl4 […]",> 7 days
same,cytoprotection against CCl4 lethality,male Sprague-Dawley rats; 100 mg/kg oral,not observed
same,Protection from CCl4,male Sprague-Dawley rats; 100 mg/kg oral (Table 5),No
same,Days Survived After CCl4 Treatment,"male Sprague-Dawley rats; 100 mg/kg oral, 24 h prior, CCl4 2.2 g/kg",> 7 days
same,Days Survived After CCl4 Treatment,"male Sprague-Dawley rats; 100 mg/kg oral, 24 h prior, CCl4 3.8 g/kg",2 days
same,Days Survived After CCl4 Treatment,"male Sprague-Dawley rats; 100 mg/kg oral, 24 h prior, CCl4 5.0 g/kg",2 days
same,Days Survived After CCl4 Treatment,"male Sprague-Dawley rats; 100 mg/kg oral, 24 h prior, CCl4 […]",3 days
same,Days Survived After CCl4 Treatment,"male Sprague-Dawley rats; 25 m/kg, single dose 24 h prior",> 7 days
same,incubation time required for cytoprotection,male Sprague-Dawley rats; single dose,greater than 12 hours
same,ALT,liver [1]; [22],1.08 ± 0.23 10^3 units/L
same,AST,liver [1]; [22],2.06 ± 0.53 10^3 units/L
same,Serum AST Levels,liver [1]; [18],.38 ± .15 10^3 units/L
same,Serum AST Levels,liver [1]; [19],.39 ± .22 10^3 units/L
same,Serum AST Levels,liver [1]; [20],.14 ± .06 10^3 units/L
same,ALT,liver [1]; [23],631 ± 17 Units/L
same,AST,liver [1]; [23],"3,430 ± 1500 Units/L"
same,minimal effective concentration,"[2]; Mus musculus, L1210, free acid, 72 hours, read-out: concentration that significantly suppresses growth rate of L1210 cells",> 100 µM
same,healing of sunburned lip,"skin lesion; topical 100 mg/ml in DMSO daily, 1 week",rapid healing of the lip without scar formation
same,healing of injured area (liquid nitrogen),"skin lesion; topical 100 mg/ml in DMSO daily, two weeks",rapid healing of the injured area with the elimination of scar tissue
same,healing of foot lesion (dermatitis),"skin lesion; topical 100 mg/ml in DMSO twice daily, 1 week",rapid healing of the foot lesion with the dissolution of both inflammation and blisters
same,ALT,liver [3]; [24],432 ± 188 Units/L
same,AST,liver [3]; [24],"1,659 ± 607 Units/L"
